Source: ChEMBL document CHEMBL1148096, “Ophirapstanol trisulfate, a new biologically active steroid sulfate from the deep water marine sponge Topsentia ophiraphidites” (J Nat Prod, 1994)
pIC50: −log10 of the molar value.

Target: GTPase HRas (Homo sapiens, UniProt P01112)
Assay: Inhibition of human recombinant p21RAS by GDPX assay

Chain of GTPase HRas (P01112 whole entry): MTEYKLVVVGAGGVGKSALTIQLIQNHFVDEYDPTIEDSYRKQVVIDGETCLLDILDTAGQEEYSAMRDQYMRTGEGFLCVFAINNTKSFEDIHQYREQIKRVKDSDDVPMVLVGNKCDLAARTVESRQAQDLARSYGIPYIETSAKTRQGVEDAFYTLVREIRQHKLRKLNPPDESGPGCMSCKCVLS

pIC50: 5.59
SMILES: CC(C)C(C)(C)C(C)CC[C@@H](C)[C@H]1CC[C@H]2[C@@H]3C[C@H](OS(=O)(=O)O)C4C[C@H](OS(=O)(=O)O)[C@@H](OS(=O)(=O)O)C[C@]4(C)[C@H]3CC[C@]12C (stereo partly specified) [OPHIRAPSTANOL TRISULFATE]
